Values of other authors, collected in patent US20240199566A1, “CATALYTIC SYNTHESIS OF DELTA-VALEROLACTONE (DVL) FROM FURFURAL-DERIVED 2-HYDROXYTETRAHYDROPYRAN (HTHP)” (Wisconsin Alumni Research Foundation, priority 2022, published 2024).

Settings: stated as a property, no test described

solubility in water: < 1 wt %
Structure (SMILES): C1=COCCC1 [DHP, 3,4-dihydropyran]
